Data on 36 compounds can be found in ChEMBL document CHEMBL1201862, “PubChem BioAssay data set” (2004).

Assay [1] addresses Luciferin 4-monooxygenase (Photinus pyralis, UniProt P08659). The assay is described as follows: inhibition of purified Photinus pyralis luciferase – biochemical, luminescence, dose response (AID 1891).
Assay [2] in a line: Luminescence Cell-Based Dose Confirmation HTS to Identify Inhibitors of Platelet Dense Granule Release. [Related pubchem assays: 1663 (Primary HTS), 1678 (Summary of Project)]. Type of assay: functional.
For assay [3], the target named is T1, Heat shock factor protein 1 (Mus musculus, UniProt P38532).
T1 sequence (P38532 whole entry): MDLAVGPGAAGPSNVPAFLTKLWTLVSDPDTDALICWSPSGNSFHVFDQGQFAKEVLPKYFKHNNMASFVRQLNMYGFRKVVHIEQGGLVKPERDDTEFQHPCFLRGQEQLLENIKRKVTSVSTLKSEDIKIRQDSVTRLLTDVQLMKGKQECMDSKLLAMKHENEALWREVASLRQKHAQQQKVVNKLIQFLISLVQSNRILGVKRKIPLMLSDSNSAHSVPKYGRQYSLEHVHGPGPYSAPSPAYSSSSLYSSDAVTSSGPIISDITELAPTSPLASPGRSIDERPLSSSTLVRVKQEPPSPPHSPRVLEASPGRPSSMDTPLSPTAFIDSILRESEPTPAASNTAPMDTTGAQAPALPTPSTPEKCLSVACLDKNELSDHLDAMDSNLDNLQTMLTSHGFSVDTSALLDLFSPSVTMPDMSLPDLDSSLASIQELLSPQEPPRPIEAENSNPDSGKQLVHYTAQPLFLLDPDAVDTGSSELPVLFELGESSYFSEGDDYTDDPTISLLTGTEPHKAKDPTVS
The assay is described as follows: enhancement of HSF1-driven luciferase signal – cell-based, NIH3T3, luminescence, dose retest, confirmation (AID 435004).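 Note: stress induced by proteasome inhibitor MG132 added 30 min after compound; luciferase reporter driven by HSF1 response element in NIH3T3 cells; actives raise luminescence as potentiators of the MG132 stress response.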 Type of assay: functional.

The target in assay [4] is T2, RNA-binding protein pos-1 (Caenorhabditis elegans, UniProt G5EF15).
T2 sequence (G5EF15 whole entry): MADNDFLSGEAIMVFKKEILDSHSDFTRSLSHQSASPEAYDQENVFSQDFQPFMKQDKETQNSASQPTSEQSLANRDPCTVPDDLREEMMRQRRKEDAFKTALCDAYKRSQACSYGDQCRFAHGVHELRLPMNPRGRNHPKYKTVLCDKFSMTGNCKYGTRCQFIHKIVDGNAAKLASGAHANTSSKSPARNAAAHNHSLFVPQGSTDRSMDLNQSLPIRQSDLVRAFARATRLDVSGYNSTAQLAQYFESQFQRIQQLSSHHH
The assay is described as follows: disruptors of C. elegans POS-1 RNA interaction – biochemical, fluorescence polarization, dose response (AID 1964).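 Note: purified POS-1 fused to maltose binding protein made in E. coli; potency of compounds blocking POS-1 binding to fluorescent RNA.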 A general note: In fluorescence polarisation assays a small probe gives low polarisation when free and higher when bound to something large.

For assay [5], the target named is T3, Zinc finger protein mex-5 (Caenorhabditis elegans, UniProt Q9XUB2).
T3 sequence (Q9XUB2 whole entry): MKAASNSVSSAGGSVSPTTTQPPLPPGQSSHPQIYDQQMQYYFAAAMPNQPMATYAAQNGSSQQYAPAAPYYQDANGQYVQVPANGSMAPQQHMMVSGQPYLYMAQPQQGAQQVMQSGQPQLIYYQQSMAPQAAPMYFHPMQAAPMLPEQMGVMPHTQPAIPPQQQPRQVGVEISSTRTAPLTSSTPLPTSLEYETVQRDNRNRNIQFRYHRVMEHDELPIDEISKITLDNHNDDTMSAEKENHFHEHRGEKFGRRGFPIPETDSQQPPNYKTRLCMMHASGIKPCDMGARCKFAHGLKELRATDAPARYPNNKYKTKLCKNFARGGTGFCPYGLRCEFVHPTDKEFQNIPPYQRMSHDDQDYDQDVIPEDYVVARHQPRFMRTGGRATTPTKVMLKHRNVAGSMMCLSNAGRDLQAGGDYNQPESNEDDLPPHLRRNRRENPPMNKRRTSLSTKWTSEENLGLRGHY
The assay is described as follows: potency of MEX-5 RNA-binding blockers – biochemical, C. elegans, fluorescence polarization, dose response (AID 1960).

In assay [6] the target is T4, Polyadenylate-binding protein 1 (Homo sapiens, UniProt P11940). The assay is described as follows: MLLE binding blockers, Cy5 peptide tracer – biochemical, fluorescence polarization, Cy5-PAM2 peptide, secondary, miRNA deadenylation inhibitor project, dose response (AID 602260). Type of assay: functional. Conditions: read-out: IC50_Mean.
In assay [7] the target is T4, Polyadenylate-binding protein 1. The assay is described as follows: MLLE domain peptide-binding blockers, IC50 – biochemical, fluorescence polarization, FITC-PAM2 peptide, dose response (AID 602259). Type of assay: functional. Conditions: read-out: IC50_Mean.
In assay [8] the target is T5, Rac GTPase-activating protein 1 (Homo sapiens, UniProt Q9H0H5).
T5 sequence (Q9H0H5 whole entry): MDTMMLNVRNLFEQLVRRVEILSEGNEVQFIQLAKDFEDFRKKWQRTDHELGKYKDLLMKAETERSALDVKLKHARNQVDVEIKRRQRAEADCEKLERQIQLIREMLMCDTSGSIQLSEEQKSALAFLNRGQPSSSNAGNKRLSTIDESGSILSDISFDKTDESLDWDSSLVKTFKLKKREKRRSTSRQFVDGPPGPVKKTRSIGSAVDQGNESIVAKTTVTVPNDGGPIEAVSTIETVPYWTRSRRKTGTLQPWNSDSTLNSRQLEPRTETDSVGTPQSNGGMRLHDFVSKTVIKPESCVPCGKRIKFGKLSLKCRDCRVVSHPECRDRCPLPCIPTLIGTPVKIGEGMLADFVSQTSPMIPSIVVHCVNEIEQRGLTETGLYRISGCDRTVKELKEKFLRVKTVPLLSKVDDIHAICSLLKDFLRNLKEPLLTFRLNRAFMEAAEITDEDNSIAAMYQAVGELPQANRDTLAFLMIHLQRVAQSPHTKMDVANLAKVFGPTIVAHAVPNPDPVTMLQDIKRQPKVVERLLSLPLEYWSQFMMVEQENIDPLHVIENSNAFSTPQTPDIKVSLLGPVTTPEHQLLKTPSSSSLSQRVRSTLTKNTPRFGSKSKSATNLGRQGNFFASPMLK
The assay is described as follows: blockers of MgcRacGAP-driven Rac1 GTP hydrolysis – biochemical, ADP Hunter fluorescence, primary and confirmatory, confirmation (AID 624330). Type of assay: functional.

Assay [9] concerns the target FAD-linked sulfhydryl oxidase ALR (Homo sapiens, UniProt P55789). The assay is described as follows: ALR-catalysed DTT oxidation blockers – biochemical, H2O2 detection, luminescence, cherry-pick, dose response (AID 493248).
Assay [10] in a line: NIH-3T3 fibroblast cytotoxicity, dose response, cytotoxicity control, cell-based, fluorescence, Alamar Blue, secondary assay (AID 2327).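 Note: NIH-3T3 mouse fibroblasts cultured with fluconazole at 8 µg/mL.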 Type of assay: functional. In general terms: Resazurin is reduced to fluorescent resorufin, in cell work by metabolically active cells.
Assay [11] is described as follows: fluconazole-exposed Candida albicans growth modulators – fluorescence, retest, confirmation (AID 2467). Type of assay: functional, cell-based.
The nature of assay [12]: luciferase reporter signal suppression in cells – H4 neuroglioma cells, luminescence, dose response (AID 1990). Type of assay: functional, cell-based. (In a reporter assay the amount or activity of a reporter protein is the signal.)
Assay [13] can be described thus: Luminescence Cell-Based Dose Response HTS to Identify Inhibitors of 5'UTR Stem-Loop Driven Prion Protein mRNA Translation in H4 Neuroglioblastoma Cells. [Related pubchem assays: 1827 (Project Summary), 1813 (Primary HTS)]. Type of assay: functional.
The nature of assay [14]: alpha-synuclein stem-loop luciferase translation blockers – H4 neuroglioma cells, luminescence, confirmation (AID 1988). Type of assay: functional, cell-based.

The structures appear in SMILES notation. Activity calls are given as the source filed them. Cut-off read from the data, not from the text of the source, for most assays here: actives have a measured EC50 and inactives only a lower limit.

Luciferin 4-monooxygenase, sequence (P08659 whole entry): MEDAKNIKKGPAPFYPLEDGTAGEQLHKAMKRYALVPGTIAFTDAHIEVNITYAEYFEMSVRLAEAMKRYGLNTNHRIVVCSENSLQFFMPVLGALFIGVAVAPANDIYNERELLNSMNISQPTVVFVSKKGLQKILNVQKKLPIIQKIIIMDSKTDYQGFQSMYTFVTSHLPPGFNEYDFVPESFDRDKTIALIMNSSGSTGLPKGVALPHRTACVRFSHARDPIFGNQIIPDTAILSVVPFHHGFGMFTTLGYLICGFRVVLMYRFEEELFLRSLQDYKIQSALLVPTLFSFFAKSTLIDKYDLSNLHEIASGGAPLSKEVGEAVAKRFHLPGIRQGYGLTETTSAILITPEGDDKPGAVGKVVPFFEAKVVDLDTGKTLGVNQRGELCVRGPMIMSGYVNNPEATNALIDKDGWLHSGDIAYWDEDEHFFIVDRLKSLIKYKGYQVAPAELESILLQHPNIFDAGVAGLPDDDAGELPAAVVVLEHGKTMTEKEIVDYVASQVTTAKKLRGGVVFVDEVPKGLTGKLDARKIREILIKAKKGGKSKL
T4 sequence (P11940 whole entry, the tested form may be a part): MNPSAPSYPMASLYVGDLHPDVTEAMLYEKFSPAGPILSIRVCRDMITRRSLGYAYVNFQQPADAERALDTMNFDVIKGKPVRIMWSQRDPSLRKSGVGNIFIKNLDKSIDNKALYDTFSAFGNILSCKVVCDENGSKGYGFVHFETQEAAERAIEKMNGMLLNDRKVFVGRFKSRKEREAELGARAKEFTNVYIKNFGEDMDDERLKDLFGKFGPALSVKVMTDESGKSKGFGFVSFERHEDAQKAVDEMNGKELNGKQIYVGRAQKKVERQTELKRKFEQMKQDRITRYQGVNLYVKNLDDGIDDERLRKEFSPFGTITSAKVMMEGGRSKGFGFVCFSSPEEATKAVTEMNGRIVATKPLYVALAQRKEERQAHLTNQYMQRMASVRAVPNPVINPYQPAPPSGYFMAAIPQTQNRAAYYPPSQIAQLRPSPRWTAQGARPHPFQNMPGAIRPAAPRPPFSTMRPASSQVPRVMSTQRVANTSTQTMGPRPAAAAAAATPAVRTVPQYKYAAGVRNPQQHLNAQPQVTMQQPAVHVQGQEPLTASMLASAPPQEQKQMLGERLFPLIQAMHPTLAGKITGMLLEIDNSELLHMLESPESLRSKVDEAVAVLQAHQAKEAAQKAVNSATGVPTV
FAD-linked sulfhydryl oxidase ALR, sequence (P55789 whole entry): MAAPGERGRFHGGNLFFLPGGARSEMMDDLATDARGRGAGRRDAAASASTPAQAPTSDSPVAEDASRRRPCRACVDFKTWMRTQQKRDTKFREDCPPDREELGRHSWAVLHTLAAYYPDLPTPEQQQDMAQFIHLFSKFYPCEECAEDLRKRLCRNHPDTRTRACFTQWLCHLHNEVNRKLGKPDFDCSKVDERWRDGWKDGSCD

As usually defined, the EC50 is the concentration at which the effect is half-maximal. Regarding `O=C(COC(=O)c1cnc(O)nc1O)Nc1ccccc1Br`, the EC50 in assay [1] and in assay [2] was > 112 µM (not active) in each case. For the compound `Cc1cc(C)n2nc(N)c(N=Nc3cccc(Cl)c3)c2n1`, in [3], the EC50 was > 260 µM (inactive). On to `COc1cc2c(cc1OC)-c1cc(Nc3cccc(F)c3)nc(=O)n1CC2`, for which the values for the 50% effective concentration (EC50) in assay [1] and in [2] were > 112 µM (not active) and 1.08 µM (active), respectively. As for `Cc1ccc(NC(=O)COC(=O)[C@H](C)NC(=O)c2ccccc2)cc1S(=O)(=O)N1CCOCC1`, the EC50 in [1] and in assay [2] was > 112 µM (not active) each time.

Take `Cc1ccc([N+](=O)[O-])cc1S(=O)(=O)Nc1ccc(O)c(Sc2nc[nH]n2)c1`: the EC50 in [4] is 9.8 µM (active); in [5] it was 9.83 µM (inconclusive). Also, the IC50 in assay [6] and in [7] was > 66 µM (inactive) throughout. As for `COCCCNC(CC(=O)Nc1cc(C)cc(C)c1)C(=O)O` (stereo unspecified), the EC50 in assay [4] and in [5] was > 300 µM (not active) each time.

`COCCN1CCN(C(=O)c2ccc3nc(Cc4ccccc4F)oc3c2)CC1`: the EC50 in assay [1] and in assay [2] was > 112 µM (not active) each time. `CN(c1ccc(C(=O)Nc2ccc3c(c2)OCO3)cc1)S(C)(=O)=O`: the EC50 was 26.3 µM (active) in [1] and 6 µM (active) in assay [2].

With `Cc1nc(/C=C2\C(=O)Nc3ccccc32)c[nH]1`, the 50% effective concentration (EC50) in [4] and in [5] was > 300 µM (not active) in each case. Regarding `COc1cc(C)c(NC(c2ccccc2)c2ccccc2)cc1OC`, in assay [8], the IC50 is 113 µM (active).

In the case of `CCOC(=O)c1c(N)sc(C(=O)Nc2ccc3c(c2)OCO3)c1C`, the EC50 was 1.28 µM (active) in [1] and 3.34 µM (active) in [2]. As to `CC(Oc1ccc(Cl)cc1Cl)C(=O)Nc1ccc(O)cc1` (stereo unspecified), the IC50 in assay [8] is 38.4 µM (active). For the compound `N#Cc1ccsc1NC(=O)CN1CCN(S(=O)(=O)c2ccc3ccccc3c2)CC1`, in assay [3], the EC50 was > 260 µM (inactive). Turning to `CCc1nnc(NS(=O)(=O)c2ccc(NCc3ccccc3O)cc2)s1`, the EC50 in [1] and in [2] was > 112 µM (not active) throughout. Take `COC(=O)c1c(C)[nH]c(C(=O)OCC(=O)N2c3ccccc3NC(=O)C2(C)C)c1C`: the EC50 in assay [1] and in [2] was > 112 µM (not active) each time. For `CN(C)C1=NC(=O)/C(=C/c2ccc(-c3ccc(S(N)(=O)=O)cc3)o2)S1`, the concentration giving a half-maximal response (EC50) in assay [4] and in [5] was > 300 µM (not active) each time. With `Cc1cccc(C(=N)NOC(=O)c2ccc3c(c2)OCO3)c1`, the EC50 was 0.838 µM (active) in assay [1] and 1.47 µM (active) in assay [2]. On to `Nc1c(Cl)cc(NC(=O)c2ccccc2C(=O)O)cc1Br`, for which the IC50 in assay [8] was 169 µM (active). Take `CC(C)c1ccc(/C=C(\NC(=O)c2ccccc2)C(=O)NCCN2CCOCC2)cc1`: the EC50 in assay [4] and in assay [5] was > 300 µM (not active) each time. In general, AC50 refers to the concentration giving half of the maximal activity seen. On to `Nc1cc(=O)[nH]n1C1CCN(c2ccccc2)CC1`, for which the AC50 in assay [9] is 2.61 µM (active). As for `CN1C(=O)NC(=O)/C(=C/c2ccc[nH]2)C1=O`, the EC50 in assay [4] and in assay [5] was > 300 µM (not active) in each case. In the case of `CCCc1n[nH]c2c1C(c1cc(OC)ccc1F)C(C#N)=C(N)O2` (stereo unspecified), in assay [3], the EC50 is > 260 µM (inactive).

Regarding `Cc1occc1C(=O)O/N=C(\N)c1ccccc1`, the values for the EC50 in assay [1] and in assay [2] were 3.91 µM (active) and 2.59 µM (active), respectively. For `COc1ccnc(N2CCN(c3ccccc3)CC2)c1C#N`, the values for the EC50 in assay [10] and in assay [11] were > 160 µM (inactive) and > 38 µM (not active), respectively. Besides, the AC50 in assay [9] is 1.27 µM (active). For `O=c1c2c(O)cc(-c3ccccc3)nc2[nH]n1-c1ccccc1`, in assay [9], the concentration at half-maximal activity (AC50) was 3.54 µM (active). Same read-out and setting: then `O=S(=O)(NCC(c1ccco1)N1CCc2ccccc21)c1ccccc1` (stereo unspecified), with 2.49 µM (active). Turning to `Cc1ccccc1-n1c(-c2ccc(Cl)cc2)cnc1SCC(=O)NC1CCS(=O)(=O)C1` (stereo unspecified), the EC50 in [3] is > 260 µM (inactive). Take `C=CCn1c(S)nnc1Cc1cccc2ccccc12`: the AC50 in [9] is 23.3 µM (active).

For `O=C(NNC(=O)c1ccccc1O)c1cccc(Br)c1`, the EC50 was 41 µM (active) in [4] and 25.6 µM (active) in assay [5].

For `CCN(CCNC(=O)CN1CCN(Cc2ccc(Cl)cc2)C1=O)c1ccccc1`, in [3], the EC50 is > 260 µM (inactive). With `CCOC(=O)c1c(NC(=O)c2nn(CC)cc2Br)c(C#N)nn1-c1ccccc1`, the EC50 was 22.5 µM (active) in assay [12], > 120 µM (not active) in [13], > 120 µM (not active) in [14] and > 260 µM (inactive) in assay [3]. For `COc1ccc(OC(=O)COc2ccc(C)cc2)cc1`, the IC50 in assay [8] was 30 µM (active). For the compound `CCCCN(C)C(=O)C1CCC(CNS(=O)(=O)c2ccc3c(c2)CC(C)N3C(=O)C2CC2)CC1` (stereo unspecified), in assay [3], the EC50 was > 260 µM (inactive). In the case of `CC1=CC2=C(OC1N(C)C)c1cccc3cccc(c13)C2=O` (stereo unspecified), the EC50 in assay [10] is > 150 µM (inactive); in assay [11], > 38 µM (not active); in assay [3] it was > 260 µM (inactive). For `CCCCN(C)C(=O)CCC(=O)NNc1nc2ccccc2c2nc(C)nn12`, the EC50 was > 300 µM (not active) in assay [4] and 5.37 µM (active) in assay [5].

As for `CSCC(C)N1CCC(Oc2cccc(C(=O)NCc3ccccn3)c2)CC1` (stereo unspecified), the EC50 is 34.9 µM (active) in assay [4] and 75.4 µM (active) in assay [5]. Further, the IC50 in assay [6] is 34.1 µM (inactive); in assay [7], 31.6 µM (inactive).
